Active and inactive are the calls of the source. No cut-off for these calls is given here.
How the values were obtained:
[1] = test system: HCT-116; test: Reduction of insulin-induced HIF-1 alpha target gene expression in human HCT116 cells assessed as decrease in Glut-1 expression at 10 uM by RT-PCR analysis; assay type: functional; conditions: for inhibition at 10 µM: Homo sapiens, HCT-116
[2] = test system: HCT-116; test: Reduction of insulin-induced HIF-1 alpha expression in human HCT116 cells at 10 uM by western blot analysis; assay type: functional; conditions: for inhibition at 10 µM: Homo sapiens, HCT-116
[3] = Cytotoxicity against human HCT116 cells at 10 uM; assay type: cell-based; conditions: hct-116, 10 µM
[4] = test system: HCT-116; test: Reduction of insulin-induced HIF-1 alpha target gene expression in human HCT116 cells assessed as decrease in VEGF expression at 10 uM by RT-PCR analysis; assay type: functional
[5] = test system: HCT-116; test: Reduction of insulin-induced HIF-1 alpha target gene expression in human HCT116 cells assessed as decrease in VEGF expression at 30 uM by RT-PCR analysis; assay type: functional
[6] = test system: HCT-116; test: Reduction of insulin-induced HIF-1 alpha target gene expression in human HCT116 cells assessed as decrease in Glut-1 expression at 30 uM by RT-PCR analysis; assay type: functional
[7] = Cytotoxicity against human HCT116 cells at 30 uM; assay type: cell-based; conditions: hct-116, 30 µM
[8] = test system: HCT-116; test: Reduction of insulin-induced HIF-1 alpha expression in human HCT116 cells at 30 uM by western blot analysis; assay type: functional
[9] = Cytotoxicity against human HCT116 cells at 3 uM; assay type: cell-based; conditions: hct-116, 3 µM
[10] = test system: HCT-116; test: Reduction of insulin-induced HIF-1 alpha expression in human HCT116 cells at 3 uM by western blot analysis; assay type: functional, cell-based

With `CSc1c(-c2ccccc2)c(SC)n2ccncc12.Cl` the inhibition [1] was “Active”, the inhibition at 10 µM [2] was 3% and the Activity [3] was “Non-toxic”. For the same molecule, the inhibition [4] was “Active”.

In the case of `CSc1c(SC)c2cnccn2c1SC.Cl`, the inhibition at 10 µM [2] was 6% and the Activity [3] was “Non-toxic”.

With `S=c1ssc(-c2cnccn2)c1-c1ccccc1` the inhibition [5] was “Active”, the inhibition [6] was “Active” and the Activity [7] was “Non-toxic”. For the same molecule, the inhibition at 30 µM [8] was 8%.

With `CCCCc1c(-c2cnccn2)ssc1=S` the Activity [7] was “Non-toxic” and the inhibition at 30 µM [8] was 80%.

With `CSc1c(Cc2ccc(C)cc2)c(SC)n2ccncc12.Cl` the Activity [3] was “Toxic”.

In the case of `CCCc1c(-c2cnccn2)ssc1=S`, the inhibition at 30 µM [5] was 70%, the inhibition at 30 µM [6] was 86% and the Activity [7] was “Non-toxic”. It also gave an inhibition at 30 µM [8] of 76%.

With `CSc1c(Cc2ccc(Cl)cc2)c(SC)n2ccncc12.Cl` the Activity [3] was “Toxic”.

For `CCc1c(-c2cnccn2)ssc1=S`, the Activity [7] was “Non-toxic”.

For `CSc1c(C)c(SC)n2ccncc12` [listing 1 of 2 here], the inhibition [4] was “inactive”.

In the case of `CCc1c(SC)c2cnccn2c1SC.Cl`, the inhibition at 10 µM [2] was 86% and the Activity [3] was “Non-toxic”.

With `COc1ccc(Cc2c(SC)c3cnccn3c2SC)cc1.Cl` the Activity [3] was “Toxic”.

In the case of `S=c1ssc(-c2cnccn2)c1Cc1ccccc1`, the Activity [7] was “Non-toxic” and the inhibition at 30 µM [8] was 41%.

With `OCc1ccc(-c2nn(Cc3ccccc3)c3ccccc23)o1` the Activity [9] was “Non-toxic” and the inhibition [10] was “Active”.

With `CC[C@@]1(O)C(=O)OCc2c1cc1n(c2=O)Cc2cc3c(CN(C)C)c(O)ccc3nc2-1` [TOPOTECAN] the Activity [9] was “Non-toxic” and the inhibition [10] was “Active”.

In the case of `S=c1ssc(-c2cnccn2)c1CCc1ccccc1`, the Activity [7] was “Non-toxic” and the inhibition at 30 µM [8] was 65%.

For `Cc1c(-c2cnccn2)ssc1=S` [OLTIPRAZ], the inhibition at 30 µM [5] was 36%, the inhibition at 30 µM [6] was 59% and the Activity [7] was “Non-toxic”. It also gave an inhibition at 30 µM [8] of 48%.

In the case of `S=c1cc(-c2cnccn2)ss1`, the Activity [7] was “Toxic”.

With `CSc1cc(SC)n2ccncc12.Cl` the Activity [3] was “Non-toxic”.

With `CSc1c(C)c(SC)n2ccncc12` [listing 2 of 2 here] the inhibition at 10 µM [1] was 14% and the inhibition at 10 µM [2] was 37%.

In the case of `CSc1c(C)c(SC)n2ccncc12.Cl`, the “inhibition (INH)” value [1] was 14%, the “inhibition (INH)” value [2] was 37% and the Activity [3] was “Non-toxic”.

With `CSc1c(CCc2ccccc2)c(SC)n2ccncc12.Cl` the inhibition at 10 µM [2] was 87% and the Activity [3] was “Toxic”.

For `S=c1ssc(-c2cnccn2)c1Cc1ccc(Cl)cc1`, the Activity [7] was “Non-toxic”.

For `COc1ccc(Cc2c(-c3cnccn3)ssc2=S)cc1`, the Activity [7] was “Non-toxic”.

In the case of `CSc1c(Cc2ccccc2)c(SC)n2ccncc12.Cl`, the inhibition at 10 µM [1] was 92%, the inhibition at 10 µM [2] was 81% and the Activity [3] was “Non-toxic”. The inhibition at 10 µM [4] was 77%.

With `CCCc1c(SC)c2cnccn2c1SC.Cl` the inhibition [1] was “Active”, the inhibition at 10 µM [2] was 90% and the Activity [3] was “Non-toxic”. For the same molecule, the inhibition [4] was “Active”.

With `Cc1ccc(Cc2c(-c3cnccn3)ssc2=S)cc1` the Activity [7] was “Non-toxic”.

In the case of `CCCCc1c(SC)c2cnccn2c1SC.Cl`, the Activity [3] was “Non-toxic”.

Reference: ChEMBL document CHEMBL3797139, “Synthesis and biological evaluation of 1,2-dithiol-3-thiones and pyrrolo[1,2-a]pyrazines as novel hypoxia inducible factor-1 (HIF-1) inhibitor” (Bioorg Med Chem, 2016)
